Article PMC10786919, “Design-rules for stapled peptides with in vivo activity and their application to Mdm2/X antagonists” (Nature Communications, 2024)
In brackets after ≈: the same amount, converted by molar mass. Like-named read-outs stand apart in the source and are kept apart here. Positions of bridges follow the written chain, without caps; N, C: chain ends. Non-standard residues stand in square brackets, D forms with d. Residues, ends and D or L forms follow the SMILES beside them. Lys(N3) = [N-]=[N+]=NCCCC[C@H](N)C(=O)O; R8 = C=CCCCCCC[C@@](C)(N)C(=O)O; Cba = N[C@@H](CC1CCC1)C(=O)O; S5 = C=CCCC[C@](C)(N)C(=O)O; βAla = NCCC(=O)O

Columns and labels:
[1] = tested on: HCT116 cells; assay: Lactate dehydrogenase (LDH) release assay; type: cell-based
Outline: (§1)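 Membrane damage measured as lactate dehydrogenase release (CytoTox-ONE kit) from p53-responsive β-lactamase reporter HCT116 cells plated at 8000 per well. Final DMSO 0.5%; geometric mean reported from a minimum of three biological replicates.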

[2] = Lactate dehydrogenase (LDH) release assay; type: cell-based
Outline: as §1

[3] = physchem
[4] = Experimental LogD (partition coefficient); conditions: not stated, Partition Coeff LogD
[5] = Solubility assay (kinetic solubility, PBS pH 7); type: physicochemical; conditions: for solubility kinetic: pH 7, aqueous buffer, kinetic from dmso stock, read-out: Solubility
Outline: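 Quantitation uses an external standard at 100 µM, prepared from 10 mM stock in acetonitrile:methanol:DMSO (10:80:10). Solubility (µM) = (peak area of sample ÷ peak area of standard) × standard concentration.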

[6] = 0% FBS 4Hr, read-out: LDH: Cytotoxicity assay EC50

| SMILES | LDH: Cytotoxicity assay % Effect ([1]; 0% FBS 4Hr) [%] | LDH: Cytotoxicity assay % Effect ([1]; 0% FBS 16Hr) [%] | EC50 [2, 6] [µM] | EPSA [3] [A^2] | logD [4] | solubility kinetic ([5]; pH 7, PBS) [µM] | LDH: Cytotoxicity assay % Effect [1] [%] | EC50 ([2]; LDH: Cytotoxicity assay EC50) [µM] | Solubility ([5]; pH 7, PBS) | LDH: Cytotoxicity assay % Effect ([1]; 10% FBS 4Hr) [%] | EC50 ([2]; 10% FBS 4Hr, read-out: LDH: Cytotoxicity assay EC50) [µM] | Solubility [5] |
| --- | --- | --- | --- | --- | --- | --- | --- | --- | --- | --- | --- | --- |
| CC(=O)N[C@@H](CCCCN=[N+]=[N-])C(=O)NCCC(=O)NC(C)(C)C(=O)N[C@H](C(=O)N[C@@H](Cc1ccccc1)C(=O)N[C@]1(C)CCCCCCC=CCCC[C@@](C)(C(=O)N[C@@H](CO)C(=O)N[C@@H](C)C(=O)N[C@@H](C)C(N)=O)NC(=O)[C@H](CC2CCC2)NC(=O)[C@H](CCC(N)=O)NC(=O)[C@H](C)NC(=O)[C@H](Cc2c[nH]c3ccccc23)NC(=O)[C@H](Cc2ccc(O)cc2)NC(=O)[C@H](CCC(=O)O)NC1=O)[C@@H](C)O [MP-168] | 4.017 | 11.59 | > 50 | 228 | 2.81 | 79.5 (≈ 154 µg/mL) |  |  |  |  |  |  |
| CC(=O)N[C@@H](CC(C)C)C(=O)N[C@H](C(=O)N[C@@H](Cc1ccccc1)C(=O)N[C@]1(C)CCCCCCC=CCCC[C@@](C)(C(=O)N[C@@H](CO)C(=O)N[C@@H](C)C(=O)N[C@@H](C)C(N)=O)NC(=O)[C@H](CC2CCC2)NC(=O)[C@H](CC(C)C)NC(=O)[C@H](CCC(N)=O)NC(=O)[C@H](Cc2c[nH]c3ccccc23)NC(=O)[C@H](Cc2ccc(O)cc2)NC(=O)[C@H](CCCNC(=N)N)NC1=O)[C@@H](C)O [MP-193] (Ac-LTF[R8]RYWQL[Cba][S5]SAA-NH2; staple 4-11) |  |  |  | 207 | 3.26 | 2 (≈ 3.63 µg/mL) | 58.33 | > 50 |  |  |  |  |
| CC(=O)N[C@@H](CC(C)C)C(=O)N[C@H](C(=O)N[C@@H](Cc1ccccc1)C(=O)N[C@]1(C)CCCCCCC=CCCC[C@@](C)(C(=O)N[C@@H](CO)C(=O)N[C@@H](C)C(=O)N[C@@H](C)C(N)=O)NC(=O)[C@H](CC2CCC2)NC(=O)[C@H](CC(C)C)NC(=O)[C@H](CCCNC(=N)N)NC(=O)[C@H](Cc2c[nH]c3ccccc23)NC(=O)[C@H](Cc2ccc(O)cc2)NC(=O)[C@H](CCC(=O)O)NC1=O)[C@@H](C)O [MP-194] (Ac-LTF[R8]EYWRL[Cba][S5]SAA-NH2; staple 4-11) |  |  |  | 210 | 2.87 |  | -1.06 | > 50 | Poorly Behaved |  |  |  |
| CC(=O)N[C@@H](CC(C)C)C(=O)N[C@@H](Cc1c[nH]cn1)C(=O)N[C@@H](Cc1ccccc1)C(=O)N[C@]1(C)CCCCCCC=CCCC[C@@](C)(C(=O)N[C@@H](CO)C(=O)N[C@@H](C)C(=O)N[C@@H](C)C(N)=O)NC(=O)[C@H](CC2CCC2)NC(=O)[C@H](CC(C)C)NC(=O)[C@H](CCC(N)=O)NC(=O)[C@H](Cc2c[nH]c3ccccc23)NC(=O)[C@H](Cc2ccc(O)cc2)NC(=O)[C@H](CCC(=O)O)NC1=O [MP-198, ATSP-7041 (T2H)] (Ac-LHF[R8]EYWQL[Cba][S5]SAA-NH2; staple 4-11) | 2.825 | -3.86 | > 50 | 209 | 2.81 | 25 (≈ 45.6 µg/mL) |  |  |  |  |  |  |
| CC(=O)N[C@@H](CC(C)C)C(=O)N[C@H](C(=O)N[C@@H](Cc1ccccc1)C(=O)N[C@]1(C)CCCCCCC=CCCC[C@@](C)(C(=O)N[C@@H](CO)C(=O)N[C@@H](C)C(=O)N[C@@H](C)C(N)=O)NC(=O)[C@H](CC2CCC2)NC(=O)[C@H](CC(C)C)NC(=O)[C@H](CCC(N)=O)NC(=O)[C@H](Cc2c[nH]c3ccccc23)NC(=O)[C@H](Cc2ccc(O)cc2)NC(=O)[C@H](Cc2c[nH]cn2)NC1=O)[C@@H](C)O [MP-199, ATSP-7041 (E5H)] (Ac-LTF[R8]HYWQL[Cba][S5]SAA-NH2; staple 4-11) | 4.035 | 24.3 | > 50 | 201 | 3.25 | 5 (≈ 8.98 µg/mL) |  |  |  |  |  |  |
| CC(=O)N[C@@H](CC(C)C)C(=O)N[C@H](C(=O)N[C@@H](Cc1ccccc1)C(=O)N[C@]1(C)CCCCCCC=CCCC[C@@](C)(C(=O)N[C@@H](Cc2c[nH]cn2)C(=O)N[C@@H](C)C(=O)N[C@@H](C)C(N)=O)NC(=O)[C@H](CC2CCC2)NC(=O)[C@H](CC(C)C)NC(=O)[C@H](CCC(N)=O)NC(=O)[C@H](Cc2c[nH]c3ccccc23)NC(=O)[C@H](Cc2ccc(O)cc2)NC(=O)[C@H](CCC(=O)O)NC1=O)[C@@H](C)O [MP-201, ATSP-7041 (S12H)] (Ac-LTF[R8]EYWQL[Cba][S5]HAA-NH2; staple 4-11) | 10.92 | 6.91 | > 50 | 218 | 2.64 | 5 (≈ 9.19 µg/mL) |  |  |  |  |  |  |
| CC(=O)N[C@@H](CCCCN=[N+]=[N-])C(=O)NCCC(=O)N[C@@H](CC(C)C)C(=O)N[C@H](C(=O)N[C@@H](Cc1ccccc1)C(=O)N[C@]1(C)CCCCCCC=CCCC[C@@](C)(C(=O)N[C@@H](CO)C(=O)N[C@@H](C)C(=O)N[C@@H](C)C(N)=O)NC(=O)[C@H](CC2CCC2)NC(=O)[C@H](C)NC(=O)[C@H](C)NC(=O)[C@H](Cc2c[nH]c3ccccc23)NC(=O)[C@H](Cc2ccc(O)cc2)NC(=O)[C@H](C)NC1=O)[C@@H](C)O [MP-964, AZIDE-ATSP-7041 (E5A,Q9A)] (Ac-[Lys(N3)][βAla]LTF[R8]AYWAA[Cba][S5]SAA-NH2; staple 6-13) | 6.293 | 4.09 | > 50 | 204 | 3.77 |  |  |  | Poorly Behaved | 2.881 | > 50 | P.B. |
| CC(=O)N[C@@H](Cc1ccccc1)C(=O)N[C@]1(C)CCCCCCC=CCCC[C@@](C)(C(=O)N[C@@H](CO)C(=O)N[C@@H](C)C(=O)N[C@@H](C)C(N)=O)NC(=O)[C@H](CC2CCC2)NC(=O)[C@H](CC(C)C)NC(=O)[C@H](CCC(N)=O)NC(=O)[C@H](Cc2c[nH]c3ccccc23)NC(=O)[C@H](Cc2ccc(O)cc2)NC(=O)[C@H](CCC(=O)O)NC1=O [MP-1202] (Ac-F[R8]EYWQL[Cba][S5]SAA-NH2; staple 2-9) |  |  |  | 214 | 2.59 | 15 (≈ 23.6 µg/mL) |  | > 50 |  |  |  |  |
| CC(=O)N[C@@H](C)C(=O)N[C@@H](C)C(=O)N[C@@H](Cc1ccccc1)C(=O)N[C@]1(C)CCCCCCC=CCCC[C@@](C)(C(=O)N[C@@H](CO)C(=O)N[C@@H](C)C(=O)N[C@@H](C)C(N)=O)NC(=O)[C@H](CC2CCC2)NC(=O)[C@H](C)NC(=O)[C@H](C)NC(=O)[C@H](Cc2c[nH]c3ccccc23)NC(=O)[C@H](Cc2ccc(O)cc2)NC(=O)[C@H](CCC(=O)O)NC1=O [MP-1207] (Ac-AAF[R8]EYWAA[Cba][S5]SAA-NH2; staple 4-11) |  |  |  | 224 | 2.91 | 171 (≈ 276 µg/mL) |  | > 50 |  |  |  |  |
| CC(=O)N[C@@H](CC(C)C)C(=O)N[C@H](C(=O)N[C@@H](Cc1ccccc1)C(=O)NC(C)(C)C(=O)N[C@@H](CCC(=O)O)C(=O)N[C@@H](Cc1ccc(O)cc1)C(=O)N[C@@H](Cc1c[nH]c2ccccc12)C(=O)N[C@@H](CCC(N)=O)C(=O)N[C@@H](CC(C)C)C(=O)N[C@@H](CC1CCC1)C(=O)NC(C)(C)C(=O)N[C@@H](CO)C(=O)N[C@@H](C)C(=O)N[C@@H](C)C(N)=O)[C@@H](C)O [MP-7189] |  |  |  | 199 | 2.12 | 24 (≈ 40 µg/mL) |  | > 50 |  |  |  |  |
